According to PMC9104508, “Antioxidant, Hypoglycemic and Molecular Docking Studies of Methanolic Extract, Fractions and Isolated Compounds from Aerial Parts of Cymbopogon citratus (DC.) Stapf” (Molecules, 2022):
Like-named read-outs stand apart in the source and are kept apart here. Marks after values point to notes of the source that are not given here.

Assays:
α-glucosidase = α-glucosidase (Saccharomyces cerevisiae, UniProt P53341); test: α-Glucosidase inhibition assay (pNPG substrate); assay type: biochemical; conditions: for inhibition at 20 µM: read-out: α-Glucosidase Inhibitory Rate
Method: The α-glucosidase inhibitory activity was measured according to the procedure described in the paper, with slight modifications. […] Immediately, 40 μL PNPG (2.5 mM) was added to each well and reacted at 37 °C for 30 min. […] The total volume of the reaction system was 200 μL. The α-glucosidase inhibition activity was calculated according to the following formula:Inhibition (%) = [1 − (A1 − A2)/(A3 − A4)] × 100(2) A1 = the absorbance of the sample group with α-glucosidase, A2 = the absorbance of the sample control group without α-glucosidase, A3 = the absorbance of the control group without samples, and A4 = the absorbance of the blank control without samples and α-glucosidase.
Results were expressed as IC50 values calculated according to Prism7.0 software.

[1] = ABTS free radical scavenging assay (commercial kit, Trolox standard); conditions: compounds
Method: (§1) The antioxidant activities of the crude extracts and isolated compounds were evaluated by implementing 2,2-diphenyl-1-picrylhydrazyl free radical scavenging (DPPH^+), 2,2’-azino-bis (3-ethylbenzothiazoline-6-sulphonic free radical scavenging (ABTS^+), and the ferric reducing antioxidant power (FRAP) assay.
(§2) ABTS^+ and FRAP assays were measured by commercial assay kits (Suzhou Comin Biotechnology Co., Ltd., Suzhou, China). The experimental method was determined according to the method used in the literature. The crude extracts and chemical compounds were dissolved in anhydrous ethanol at concentrations of 800 μg/mL and 40 μM. […] Trolox was used as a standard reference compound to quantitate ABTS^+ and FRAP capacity. The results were expressed in µmol Trolox/g or mol Trolox/mol. The standard curve was drawn using Trolox solutions at a range of concentrations.

[2] = Ferric reducing antioxidant power (FRAP) assay (commercial kit, Trolox standard); conditions: compounds
Method: as §1, §2

[3] = DPPH free radical scavenging assay; conditions: compounds; 30 min, room temperature
Method: as §1
The DPPH^+ assay was measured according to the previous report with slight modifications. […] The DPPH^+ was dissolved with anhydrous methanol to 0.1 mM.
Then 180 μL DPPH solution and 20 μL sample were mixed in each well of a 96-well plate and incubated for 30 min at room temperature in the dark. […] Ascorbic acid was used as a positive control. The DPPH^+ scavenging activity was calculated according to the following formula:Inhibition (%) = [1 − (A1 − A2)/(A3 − A4)] × 100(1) A1 = absorbance of the sample group with DPPH, A2 = absorbance of the sample control group without DPPH, A3 = absorbance of the control group with DPPH, and A4 = the absorbance of the blank control.

3T3-L1 adipocytes = test: Glucose uptake in 3T3-L1 adipocytes; assay type: cell-based, mouse
Method: The 3T3-L1 preadipocytes were cultured and differentiated using the method described earlier with slight modifications. The 3T3-L1 preadipocytes were cultured in high glucose DMEM supplemented with 10% NBCS, 1% P/S, and then starved until the cells reached confluence (day 0). Two days later (day 2), the cells were induced for differentiation with high glucose DMEM supplemented with 10% FBS, 1% P/S, IBMX, DEX, Rosi, and insulin. On day 5, the medium was changed to high glucose DMEM containing 10% FBS, 1% P/S, and 100 nM insulin for one day (day 6). Then the cells were completely differentiated into mature adipocytes.
The glucose uptake test was carried out according to the procedure described in the paper. […] After 48 h of culture, the glucose uptake was measured according to the operating instructions of the glucose content determination kit. Following the glucose uptake test, the cell viability was determined using the CellTiter 96® aqueous cell proliferation test. […] Then the absorbance was measured using microplate reader at 490 nm after incubation at 37 °C for 4 h. The cell viability was calculated according to the following formula:Cell viability rate (%) = […] × 100 (3) A1 = the absorbance of the blank control, A2 = the absorbance of each fraction group, each compound group, or positive control group.

Sequence of α-glucosidase (P53341 whole entry): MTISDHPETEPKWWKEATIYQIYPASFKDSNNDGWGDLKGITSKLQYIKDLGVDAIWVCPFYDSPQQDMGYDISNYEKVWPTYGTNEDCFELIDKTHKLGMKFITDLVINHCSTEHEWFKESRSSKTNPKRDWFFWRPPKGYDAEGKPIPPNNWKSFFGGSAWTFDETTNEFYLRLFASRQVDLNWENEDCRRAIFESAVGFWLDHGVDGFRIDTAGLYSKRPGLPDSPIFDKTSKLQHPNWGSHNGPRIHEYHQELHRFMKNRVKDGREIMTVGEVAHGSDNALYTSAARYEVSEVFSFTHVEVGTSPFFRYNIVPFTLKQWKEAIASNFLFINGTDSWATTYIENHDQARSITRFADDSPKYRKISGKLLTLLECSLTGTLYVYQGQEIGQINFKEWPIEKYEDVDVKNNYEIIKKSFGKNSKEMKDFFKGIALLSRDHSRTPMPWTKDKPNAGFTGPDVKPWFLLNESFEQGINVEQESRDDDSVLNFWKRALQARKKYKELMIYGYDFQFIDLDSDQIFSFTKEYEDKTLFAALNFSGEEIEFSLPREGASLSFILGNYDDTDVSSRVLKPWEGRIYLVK

Molecule | α-Glucosidase Inhibitory Rate (α-glucosidase; at a concentration of 20 μM) [%] | ABTS Assay, Trolox equivalents [1] | FRAP Assay, Trolox equivalents [2] | IC50 [3] [µM] | inhibition at 20 µM (α-glucosidase; at a concentration of 20 μM) [%] | inhibition at 20 µM (α-glucosidase) [%] | glucose uptake in 3T3-L1 adipocytes (3T3-L1 adipocytes; compounds at 20 μM, 48 h, versus control) | glucose uptake rates of 3T3-L1 adipocytes (3T3-L1 adipocytes; positive control group versus control group, p < 0.001)
C[C@H]1O[C@H](O[C@H]2[C@H](O)[C@@H](O)[C@@H](O[C@H]3[C@H](O)[C@@H](O)C(O)O[C@@H]3CO)O[C@@H]2CO)[C@H](O)[C@@H](O)[C@@H]1N[C@H]1C=C(CO)[C@@H](O)[C@H](O)[C@H]1O (some centres unmarked) [Acarbose, reference compound] | 99.4 ± 0.0 |  |  |  |  |  |  | 
O=C1O[C@H]([C@@H](O)CO)C(O)=C1O [Ascorbic acid, reference compound] |  | 1.66 ± 0.050 ^e mol Trolox/mol | 1.68 ± 0.063 ^b mol Trolox/mol | 19.8 ± 1.27 |  |  |  | 
COc1cc(O)cc(O)c1C(C)=O [Compound 1, 4,6-dihydroxy-2-methoxyacetophenone] |  | 2.40 ± 0.16 ^a mol Trolox/mol |  | > 80 | < 50 |  |  | 
COc1cc(OC2OC(CO)C(O)C(O)C2O)cc(O)c1C(C)=O [Compound 2, 4-O-β-D-glucopyranosyl-2-hydroxy-6-methoxyacetophenone] |  | 0.87 ± 0.11 ^f mol Trolox/mol |  | > 80 | 22.6 ± 3.4 |  |  | 
CC(=O)c1c(O)cc(O)cc1OC1OC(CO)C(O)C(O)C1O [Compound 3, 2,4,6-trihydroxy-acetophenone 2-O-β-D-glucoside] |  | 1.97 ± 0.079 ^cd mol Trolox/mol |  | > 80 | < 50 |  |  | 
O=C(O)/C=C/c1ccc(O)cc1 [Compound 4, p-coumaric acid] |  | 2.28± 0.10 ^ab mol Trolox/mol |  | > 80 |  | < 50 |  | 
O=C(O)/C=C/c1ccc(O)c(O)c1 [Compound 5, caffeic acid] |  | 2.15 ± 0.0619 ^abc mol Trolox/mol | 1.73 ± 0.080 ^b mol Trolox/mol | 7.41 ± 0.74 | < 50 |  | weak effect | 
COc1cc(/C=C/C(=O)OCC(O)CO)ccc1O (centres unmarked) [Compound 6, 1-O-feruloylglycerol] |  | 1.80 ± 0.0462 ^de mol Trolox/mol | 0.012 ± 0.014 ^d mol Trolox/mol | > 80 | 5.3 ± 1.8 |  |  | 
O=C(/C=C/c1ccc(O)cc1)OCC(O)COC(=O)/C=C/c1ccc(O)cc1 [Compound 7, 1,3-O-di-p-coumaroylglycerol] |  | 1.99 ± 0.11 ^cd mol Trolox/mol |  | > 80 | 46.1 ± 2.4 |  |  | 
O=C(/C=C/c1ccc(O)cc1)OCC(O)COC(=O)/C=C/c1ccc(O)c(O)c1 (centres unmarked) [Compound 8, 1-O-p-coumaroyl-3-O-caffeoylglycerol] |  | 1.70 ± 0.066 ^e mol Trolox/mol | 1.42 ± 0.073 ^c mol Trolox/mol | 14.8 ± 1.83 | 67 |  |  | 
O=C(/C=C/c1ccc(O)c(O)c1)OCC(O)COC(=O)/C=C/c1ccc(O)c(O)c1 [Compound 9, 1,3-O-dicaffeoylglycerol] |  | 2.065 ± 0.050 ^bcd mol Trolox/mol | 2.42 ± 0.10 ^a mol Trolox/mol | 8.82 ± 1.12 | 88.8 |  |  | 
COc1cc(-c2cc(=O)c3c(O)cc(O)cc3o2)cc(OC)c1O [Compound 10, tricin] |  | 1.64 ± 0.14 ^e mol Trolox/mol |  | > 80 |  | 20.8 ± 7.3 |  | 
O=c1cc(-c2ccc(O)c(O)c2)oc2cc(O[C@@H]3O[C@H](CO)[C@@H](O)[C@H](O)[C@H]3O)cc(O)c12 [Compound 12, luteolin-7-O-β-D-glucopyranoside] |  | 1.86 ± 0.075 ^de mol Trolox/mol | 1.31 ± 0.057 ^c mol Trolox/mol | 7.28 ± 1.48 |  | 21.9 ± 6 |  | 
insulin |  |  |  |  |  |  |  | noticeably promoted
